Laboratory results taken from patent US10941132B2, “Pyrazole derivatives” (HUA MEDICINE (SHANGHAI) Ltd., priority 2016, dated 2021).

Each compound was assayed against T1, recombinant rat mGluR5 (Rattus norvegicus, UniProt P31424) (assay: Functional calcium flux assay (FLIPR), antagonist evaluation against glutamate-evoked [Ca2+]i increase). Conditions: Table 1; HEK293 cells stably expressing recombinant rat mGluR5; 15 min incubation of test compound, then submaximal glutamate; read-out: IC50 value (FLIPR assay).
T1 construct: expressed in transfected cells
Type: cell-based
Description: Functional Calcium Clux Assay Methodology
For functional assays, HEK293 cells stably expressing recombinant rat mGluR5 were seeded in 384-well plates and dye loaded using Fluo-8. Cells were then washed to remove the un-incorporated dye. Antagonist evaluation was performed following a 15 min incubation of the test compound followed by the addition of submaximal concentration of glutamate. Intracellular calcium ([Ca^2+]i) measurements were performed using a fluorometric imaging plate reader (FLIPR, Molecular Devices). The glutamate-evoked increase in [Ca^2′]i in the presence of the test compounds was compared to the response to glutamate alone (the positive control). Antagonist inhibition curves were fitted with a 4-parameter logistic equation giving IC50 values, and Hill coefficients using an iterative nonlinear curve fitting algorithm.
The tables below provide IC50 data in this assay. In the activity column, A=IC50>1,000 and ≤5,000 nM; B=IC50>500 and ≤1,000 nM and C=IC50≤500 nM.

T1 sequence (P31424 21-1203): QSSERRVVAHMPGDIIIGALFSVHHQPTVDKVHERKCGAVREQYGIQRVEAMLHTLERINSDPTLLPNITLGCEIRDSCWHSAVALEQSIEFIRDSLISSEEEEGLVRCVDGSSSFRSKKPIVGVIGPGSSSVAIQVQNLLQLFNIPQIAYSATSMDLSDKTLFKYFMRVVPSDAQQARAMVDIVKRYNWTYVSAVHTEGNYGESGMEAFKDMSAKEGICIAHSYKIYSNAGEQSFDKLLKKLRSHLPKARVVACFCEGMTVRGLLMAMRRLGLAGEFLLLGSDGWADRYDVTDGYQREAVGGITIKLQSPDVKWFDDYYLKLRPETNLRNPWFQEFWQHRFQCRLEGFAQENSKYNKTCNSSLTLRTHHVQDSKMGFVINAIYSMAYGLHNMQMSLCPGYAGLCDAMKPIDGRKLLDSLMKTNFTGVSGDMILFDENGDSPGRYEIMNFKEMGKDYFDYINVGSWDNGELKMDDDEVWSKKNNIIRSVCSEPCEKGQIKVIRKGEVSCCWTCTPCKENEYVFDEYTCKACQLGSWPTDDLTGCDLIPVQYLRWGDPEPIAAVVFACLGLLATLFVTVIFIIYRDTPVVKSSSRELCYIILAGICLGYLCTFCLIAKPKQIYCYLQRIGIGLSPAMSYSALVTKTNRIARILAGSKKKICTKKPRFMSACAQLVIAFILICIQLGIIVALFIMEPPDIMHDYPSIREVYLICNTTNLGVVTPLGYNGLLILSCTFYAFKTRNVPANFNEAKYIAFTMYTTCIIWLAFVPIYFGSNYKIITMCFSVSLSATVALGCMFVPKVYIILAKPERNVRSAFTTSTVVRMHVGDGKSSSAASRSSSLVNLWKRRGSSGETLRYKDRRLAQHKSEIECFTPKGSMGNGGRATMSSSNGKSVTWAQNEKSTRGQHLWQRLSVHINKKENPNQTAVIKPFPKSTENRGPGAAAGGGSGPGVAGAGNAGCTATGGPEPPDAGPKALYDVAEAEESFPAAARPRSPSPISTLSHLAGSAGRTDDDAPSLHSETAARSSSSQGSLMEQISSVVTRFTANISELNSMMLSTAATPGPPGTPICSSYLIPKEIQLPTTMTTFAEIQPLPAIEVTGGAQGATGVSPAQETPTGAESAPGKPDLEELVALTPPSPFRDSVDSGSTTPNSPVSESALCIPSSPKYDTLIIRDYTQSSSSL

IC50 | SMILES
1000 to 5000 nM | FC(F)(F)Oc1ccc(-n2cc(C#Cc3ncccn3)c(Cl)n2)cc1 [Compound 41, 2-((3-chloro-1-(4-(trifluoromethoxy)phenyl)-1H-pyrazol-4-yl)ethynyl)pyrimidine]
≤ 500 nM | Fc1ccc(-n2cc(C#Cc3ncccn3)cn2)cn1 [Compound 34, 2-((1-(6-fluoropyridin-3-yl)-1H-pyrazol-4-yl)ethynyl)pyrimidine]
≤ 500 nM | Fc1cncc(-n2cc(C#Cc3ccccn3)c(Cl)n2)c1 [Compound 44, 3-(3-chloro-4-(pyridin-2-ylethynyl)-1H-pyrazol-1-yl)-5-fluoropyridine]
≤ 500 nM | Fc1ccc(-n2cc(C#Cc3ccccn3)c(OC(F)F)n2)nc1 [Compound 68, 2-(3-(difluoromethoxy)-4-(pyridin-2-ylethynyl)-1H-pyrazol-1-yl)-5-fluoropyridine]
≤ 500 nM | COc1c(C#Cc2ccccn2)cnn1-c1ccc(F)cc1 [Compound 51, 2-((1-(4-fluorophenyl)-5-methoxy-1H-pyrazol-4-yl)ethynyl)pyridine]
≤ 500 nM | FC(F)(F)Oc1ccc(-n2cc(C#Cc3ncccn3)cn2)cc1 [Compound 93]
≤ 500 nM | Fc1ccc(-n2cc(C#Cc3ccnc(Cl)c3)cn2)cc1 [Compound 85, 2-chloro-4-((1-(4-fluorophenyl)-1H-pyrazol-4-yl)ethynyl)pyridine]
≤ 500 nM | COCCOc1ccc(-n2cc(C#Cc3ccccn3)cn2)cc1 [Compound 26, 2-((1-(4-(2-methoxyethoxy)phenyl)-1H-pyrazol-4-yl)ethynyl) pyridine]
≤ 500 nM | Fc1ccc(-n2cc(C#Cc3ncccn3)cn2)cc1 [Compound 86, 2-((1-(4-fluorophenyl)-H-pyrazol-4-yl)ethynyl)pyrimidine]
≤ 500 nM | Cc1c(C#Cc2ccccn2)cnn1-c1cc(F)cc(C#N)c1 [Compound 50, 3-fluoro-5-(5-methyl-4-(pyridin-2-ylethynyl)-1H-pyrazol-1-yl) benzonitrile]
≤ 500 nM | N#Cc1cc(F)cc(-n2cc(C#Cc3ncccn3)c(Cl)n2)c1 [Compound 39, 3-(3-chloro-4-(pyrimidin-2-ylethynyl)-1H-pyrazol-1-yl)-5-fluorobenzonitrile]
≤ 500 nM | Cc1nn(-c2ccc(F)cc2)c(C(F)(F)F)c1C#Cc1ccccn1 [Compound 12, 2-((1-(4-fluorophenyl)-3-methyl-5-(trifluoromethyl)-1H-pyrazol-4-yl)ethyny) pyridine]
≤ 500 nM | Fc1ccc(-n2cc(C#Cc3ccccn3)cn2)cn1 [Compound 23]
500 to 1000 nM | COCCOc1nn(-c2ccc(F)cn2)cc1C#Cc1ccccn1 [Compound 64, S-fluoro-2-(3-(2-methoxyethoxy)-4-(pyridin-2-ylethynyl)-1H-pyrazol-1-yl)pyridine]
≤ 500 nM | Fc1ccc(-n2cc(C#Cc3ccccn3)c(Cl)n2)nc1 [Compound 49, 2-(3-chloro-4-(pyridin-2-ylethynyl)-1H-pyrazol-1-yl)-5-fluoropyridine]
≤ 500 nM | Cc1nn(-c2ccc(F)cc2)c(C)c1C#Cc1ccccn1 [Compound 1]
1000 to 5000 nM | CS(=O)(=O)c1ccc(-n2cc(C#Cc3ccccn3)c(Cl)n2)cc1 [Compound 58, 2-((3-chloro-1-(4-(methylsulfonyl)phenyl)-1H-pyrazol-4-yl)ethynyl)pyridine]
≤ 500 nM | COc1nn(-c2ccc(F)cc2)c(C)c1C#Cc1ccccn1 [Compound 8, 2-((1-(4-fluorophenyl)-3-methoxy-5-methyl-1H-pyrazol-4-yl)ethynyl)pyridine]

Same assay, conditions: Table 2; HEK293 cells stably expressing recombinant rat mGluR5; 15 min incubation of test compound, then submaximal glutamate; read-out: IC50 (FLIPR assay)

IC50 | SMILES
≤ 500 nM | Cc1cc(C#Cc2ccccc2)nn1-c1cc(F)cc(C#N)c1 [Compound 96, 3-fluoro-5-(5-methyl-3-(phenylethynyl)-1H-pyrazol-1-yl) benzonitrile]
≤ 500 nM | Cc1cc(C#Cc2ccnc(Cl)c2)nn1-c1cc(F)cc(C#N)c1 [Compound 100, 3-(3-((2-chloropyridin-4-yl)ethynyl)-5-methyl-1H-pyrazol-1-yl)-5-fluorobenzonitrile]
≤ 500 nM | Fc1cncc(-n2ccc(C#Cc3ccccn3)n2)c1 [Compound 70, 3-fluoro-5-(3-(pyridin-2-ylethnyl)-1H-pyrazol-1-yl)pyridine]
≤ 500 nM | C(#Cc1ccn(-c2ccccn2)n1)c1ccccn1 [Compound 71, 2-((1-(pyridin-2-yl)-1H-pyrazol-3-yl)ethynyl)pyridine]
1000 to 5000 nM | Cc1cc(C#Cc2cccnc2)nn1-c1ccc(OC(F)(F)F)cc1 [Compound 132, 3-((5-methyl-1-(4-(trifluoromethoxy)phenyl)-1H-pyrazol-3-yl)ethynyl)pyridine]
≤ 500 nM | Cc1cc(C#Cc2ccncc2)nn1-c1cc(F)cc(C#N)c1 [Compound 102, 3-fluoro-5-(5-methyl-3-(pyridin-4-ylethynyl)-1H-pyrazol-1-yl) benzonitrile]
≤ 500 nM | N#Cc1cc(F)cc(-n2ccc(C#Cc3ncccn3)n2)c1 [Compound 109, 3-fluoro-5-(3-(pyrimidin-2-ylethynyl)-1H-pyrazol-1-yl)benzonitrile]
≤ 500 nM | Cc1cc(C#Cc2cccnc2)nn1-c1cc(F)cc(C#N)c1 [Compound 98, 3-fluoro-5-(5-methyl-3-(pyridin-3-ylethynyl)-1H-pyrazol-1-yl) benzonitrile]
1000 to 5000 nM | Fc1ccc(-n2ccc(C#Cc3cccnc3)n2)cc1 [Compound 114, 3-((1-(4-fluorophenyl)-1H-pyrazol-3-yl)ethynyl)pyridine]
500 to 1000 nM | Cc1cn(-c2ccc(F)cn2)nc1C#Cc1ccccn1 [Compound 72, 5-fluoro-2-(4-methyl-3-(pyridin-2-ylethynyl)-1H-pyrazol-1-yl) pyridine]
1000 to 5000 nM | Cc1cc(C#Cc2cccnc2)nn1-c1ccc(F)cc1 [Compound 127, 3-((1-(4-fluorophenyl)-5-methyl-1H-pyrazol-3-yl)ethynyl)pyridine]
≤ 500 nM | Fc1ccc(-n2ccc(C#Cc3ccccn3)n2)nc1 [Compound 67, 5-fluoro-2-(3-(pyridin-2-ylethynyl)-1H-pyrazol-1-yl)pyridine]
≤ 500 nM | Cc1cn(-c2cc(F)cc(C#N)c2)nc1C#Cc1ncccn1 [Compound 60, 3-fluoro-5-(4-methyl-3-(pyrimidin-2-ylethynyl)-1H-pyrazol-1-yl) benzonitrile]
≤ 500 nM | Cc1cc(C#Cc2ccnc(Cl)c2)nn1-c1ccc(F)cc1 [Compound 131, 2-chloro-4-((1-(4-fluorophenyl)-5-methyl-1H-pyrazol-3-yl)ethynyl) pyridine]
≤ 500 nM | N#Cc1cc(F)cc(-n2ccc(C#Cc3cnccn3)n2)c1 [Compound 111, 3-fluoro-5-(3-(pyrazin-2-ylethynyl)-1H-pyrazol-1-yl)benzonitrile]
1000 to 5000 nM | FC(F)(F)Oc1ccc(-n2ccc(C#Cc3cccc(Cl)c3)n2)cc1 [Compound 122, 3-((3-chlorophenyl)ethynyl)-1-(4-(trifluoromethoxy)phenyl)-1H-pyrazole]
1000 to 5000 nM | FC(F)(F)Oc1ccc(-n2ccc(C#Cc3ccncc3)n2)cc1 [Compound 124, 4-((1-(4-(trifluoromethoxy)phenyl)-1H-pyrazol-3-yl)ethynyl) pyridine]
1000 to 5000 nM | Cc1cc(C#Cc2ccnc(Cl)c2)nn1-c1ccc(OC(F)(F)F)cc1 [Compound 135, 2-chloro-4-((5-methyl-1-(4-(trifluoromethoxy)phenyl)-1H-pyrazol-3-yl)ethynyl)pyridine]
